The subject of experiment [1] is cRLN3 mRNA expression in cultured chicken pituitary cells. The settings on record: dihydrotestosterone 100 nM, 4 h/24 h; male chick pituitary cells; qPCR.
Description: (§3) The primers (10 μM), dNTP (10 mM), easy Taq buffer, easy Taq DNA polymerase (TransGen Biotech), Eva Green (Biotium), MilliQ-H2O, and templates were mixed in a total volume of 20 μl. Then the reaction mix was conducted on the CFX96 Real-Time PCR Detection System (Bio-Rad). The amplification conditions included an initial denaturation for 10 min at 94°C followed by 20 s of denaturation at 94°C, 15 s annealing at 60°C, and 30 s extension at 72°C for 40 cycles.
To explore the regulatory effects of GnRH/CRH/E2/P4 on cRLN3, the anterior pituitaries isolated from 4-week-old female chicks were sliced and digested by 0.25% trypsin at 37°C for 20 min. The dispersed pituitary cells were cultured at a density of 5 × 10^5 cells/well in Medium 199 supplemented with 15% fetal bovine serum. Then, the medium was replaced with a serum-free M199 medium and the cells were incubated with GnRH (1–100 nM), CRH (0.1–10 nM), E2 (100 nM), and P4 (100 nM) for different duration times (4 h/24 h). […]
(§4) The relative mRNA levels of target genes were first calculated as the ratios to that of β-actin and then expressed as fold change (or the percentage) compared to their respective controls (chosen tissues). The data were analyzed by Student’s t-test (between two groups), or by one-way ANOVA followed by the Dunnett test in GraphPad Prism 7 (GraphPad Software, San Diego, CA).
The test system is the same in experiment [2]. Kind of experiment: cRLN3 mRNA expression (qPCR) in cultured pituitary cells of 4-week-old female chicks. Type of experiment: cell-based. On the technique in general: In qPCR the cycle at which signal appears reflects the starting amount.
Description: as §3
To explore the regulatory effects of GnRH/CRH/E2/P4 on cRLN3, the anterior pituitaries isolated from 4-week-old female chicks were sliced and digested by 0.25% trypsin at 37°C for 20 min. The dispersed pituitary cells were cultured at a density of 5 × 10^5 cells/well in Medium 199 supplemented with 15% fetal bovine serum. Then, the medium was replaced with a serum-free M199 medium and the cells were incubated with GnRH (1–100 nM), CRH (0.1–10 nM), E2 (100 nM), and P4 (100 nM) for different duration times (4 h/24 h). […] The total RNA was then extracted from cultured pituitary cells and the expression of RLN3 and β-actin mRNA was assayed by qPCR.
as §4
The next experiment relates to CART. Conditions: chicken pituitary, ref Cai et al., 2015, Mo et al., 2019; cited from earlier work. The source says:
Till present, a total of five genes (LHB, FSHB, GRP, CART, and RLN3) have been detected to be abundantly expressed in chicken pituitary gonadotrope cells ([Mo et al., 2017]; [Zhang et al., 2021]). Although these genes concentrate on the same cell cluster, these genes vary in sexual distribution patterns, cell co-localization profiles, and the hypothalamus regulation networks. For example, RLN3 and GRP show an abundance in female gonadotrope cells while LHB, FSHB, and CART show a higher expression in male pituitary cells. In addition, all cells expressing RLN3 overlap with the cells expressing ...

The target in experiment [3] is chicken relaxin family peptide 1 receptor (cRXFP1) (chicken).
The next experiment has as its system cRXFP1. Kind of experiment: pGL3-CRE-luciferase reporter (cAMP/PKA), HEK293 cells expressing cRXFP1. The experiment is classed as cell-based, chicken. The protocol: According to our previously established methods ([Liu et al., 2019]; [Jiang et al., 2022]), two cell-based luciferase reporter systems (pGL3-CRE-luciferase and pGL3-NFAT-RE-luciferase) were used to verify whether cRLN3cm is biologically active and capable of activating cRXFP1 and cRXFP3. In brief, HEK293 cells transiently expressing each receptor (cRXFP1 and cRXFP3) were treated with 30 μl serum-free medium containing cRLN3cm or pcDNAcm (0.001–10 μl) for 6 h, and the receptor-activated cAMP/PKA pathways and calcium mobilization were then monitored by pGL3-CRE-luciferase and pGL3-NFAT-RE-luciferase reporter systems, respectively. HEK293 cells expressing empty pcDNA3.1 (+) were used as a negative control.
To compare the functional difference between chicken RLN3 and human RLN3, recombinant human RLN3 (rhRLN3, 10^–12 to 10^–7 M, 6 h) was used to treat HEK293 cells expressing cRXFP1 or cRXFP3, respectively, and its potency in activating cRXFP1 and cRXFP3 was also evaluated.
To verify whether chicken RLN3 can activate RXFP1 or RXFP3, a cRLN3-conditioned medium (cRLN3cm, 0.001–10 μl) was used to treat HEK293 cells expressing cRXFP1/cRXFP3. Receptor activation was examined by pGL3-CRE-luciferase and pGL3-NFAT-RE-luciferase reporter systems established in our previous studies ([Liu et al., 2019]).
In general terms: In a reporter assay the amount or activity of a reporter protein is the signal.

Experiment [4] concerns relaxin family peptide 2 receptor (RXFP2). Conditions: ref Kumagai et al., 2002; Hsu et al., 2003; cited from earlier work. The text has this:
(§1) As the typical member of the insulin superfamily, the RLNs bind their receptors to play their physiological roles. In mammals, RLN1 and RLN2 bind the relaxin family peptide 1 receptor (RXFP1) for downstream signaling ([Bathgate et al., 2013]). As their cognate receptor, RXFP1, which is also called the leucine-rich repeat-containing G-protein-coupled receptor 7 (LGR7), is capable of coupling to multiple G-proteins, thus triggering the pathways including cAMP accumulation ([Halls et al., 2006]; [Halls et al., 2007]; [Halls et al., 2009]), ERK1/2 phosphorylation, NO production, and other signalin ...

The target of experiment [5] is chicken relaxin family peptide 3 receptor (cRXFP3) (chicken).
Experiment [6] deals with chicken relaxin family peptide 1 receptor (cRXFP1) (chicken). This is another data set of the same source.
For experiment [7], the system named is E2 production during follicular development. The settings on record: female teleost fish; ref Wilson et al., 2009; Yang et al., 2020; cited from earlier work. The text has this: Supporting evidence also comes from the high expression of its cognate receptor (cRXFP1) in chicken tissues. Similar to rats, RXFP1 is highly expressed in the uterus involving uterine contractions ([Hsu et al., 2002]; [Vodstrcil et al., 2010]). In addition, cRXFP1 is also detected to be expressed highly in a wide range of female tissues (infundibulum, isthmus, uterus, and vagina), th ...

In experiment [8] the test system is RXFP3. The settings on record: ref Liu et al., 2005; cited from earlier work. The source says: Although cRLN3 is able to activate both cRXFP1 and cRXFP3, the potency of cRLN3 for cRXFP1 activation is at least 10-fold higher than that for cRXFP3. […] The present study supports that chicken RLN3 is a functional analog of rhRLN3. However, our finding contrasts with that of mammalian species. […] The difference may result from ligand–receptor interaction mo ...

Experiment [9] concerns RXFP3. The settings on record: human RXFP3, Gαi/o coupled, ref Liu et al., 2003b, 2005, Bathgate et al., 2006, van der Westhuizen et al., 2007; cited from earlier work.
Description: as §1

The subject of experiment [10] is rat hypothalamic explants. The settings on record: ref McGowan et al., 2008, 2014; cited from earlier work. The text has this:
(§2) Since GnRH is pulsed secreted and negatively regulated by CRH ([Ciechanowska et al., 2010]), the expression of RLN3 mRNA may be regulated by CRH. As the key player in the hypothalam ...

For experiment [11] the following is noted: intraventricular (icv) injection, ref McGowan et al., 2008, 2014; cited from earlier work.
Description: as §2

In a further experiment the test system is RXFP1. The settings on record: ref Sudo et al., 2003, cited from earlier work. The text has this: As the typical member of the insulin superfamily, the RLNs bind their receptors to play their physiological roles. In mammals, RLN1 and RLN2 bind the relaxin family peptide 1 receptor (RXFP1) for downstream signaling ([Bathgate et al., 2013]). […] However, only a dose-dependent increase in luciferase activity in HEK293 cells expressing chicken cRXFP1 is detected in the present study which is different from the report in mammalian species that RXFP1 is capable of coupling to Gs and other G-proteins (Gi/o), thus showing a biphasic pattern o ...

Entries after “also recorded” stand apart in the source; their conditions may differ.

In the case of `C[C@]12CCC(=O)C[C@@H]1CC[C@@H]1[C@@H]2CC[C@]2(C)[C@@H](O)CC[C@@H]12` [DHT, dihydrotestosterone], the “effect of DHT on cRLN3 mRNA expression” value in experiment [1] is given as “could not affect the expression of cRLN3 mRNA”.

Regarding `C[C@]12CC[C@@H]3c4ccc(O)cc4CC[C@H]3[C@@H]1CC[C@@H]2O` [E2, 17β-estradiol], the “effect of E2 on cRLN3 mRNA expression, 4 h” value in [2] (17β-estradiol 100 nM, 4 h, qPCR) was “could increase the expression level of cRLN3 mRNA; also recorded: found to increase the expression of cRLN3”. Moreover, the “effect of E2 on cRLN3 mRNA expression, 24 h” value in experiment [2] (17β-estradiol 100 nM, 24 h, qPCR) was “could not regulate the mRNA expression of cRLN3”.

`CC(=O)[C@H]1CC[C@H]2[C@@H]3CCC4=CC(=O)CC[C@]4(C)[C@H]3CC[C@]12C` [P4, progesterone]: the “effect of P4 on cRLN3 mRNA expression” value in experiment [2] (progesterone 100 nM, 4 h/24 h, qPCR) is recorded as “could not affect the expression of cRLN3 mRNA”.

With “Chicken gonadotropin-releasing hormone (QHWSYGLQPG; Gonadoliberin-1; UniProt P37042 24-33, looked up) [GnRH, synthesized using solid-phase Fmoc chemistry (GL Biochem, Shanghai, China)]”, the “regulation of CART, GnRH compared with CRH” value with CART is on record as “equal potency”. The “effect of GnRH on cRLN3 mRNA expression, 4 h” value in experiment [2] (GnRH 10 nM, 4 h, qPCR, fold vs control) is recorded as “slightly increase the expression of cRLN3 mRNA”. Besides, the “effect of GnRH on cRLN3 mRNA expression, 24 h” value in [2] (GnRH 10 nM, 24 h, qPCR, fold vs control) is “not able to further regulate the expression of cRLN3 mRNA”. Moreover, in experiment [2] (GnRH 1, 10, 100 nM, 4 h, qPCR, N = 4), the “effect of GnRH on cRLN3 mRNA expression, dose response” value is given as “could increase the expression level of cRLN3 mRNA in a dose-dependent manner; also recorded: could only weakly stimulate the mRNA expression of cRLN3”.

Take “chicken relaxin 3 (cRLN3), in conditioned medium of HEK293 cells transfected with the cRLN3 expression plasmid (ligand)”: the potency of cRLN3cm in activating cRXFP1 relative to cRXFP3, pGL3-CRE-luciferase reporter in HEK293 cells in experiment [3] was greater than 10 fold.

Turning to chicken relaxin 3 [cRLN3], in the experiment on cRXFP1 (HEK293 cells expressing cRXFP1 or cRXFP3), the “potency on cRXFP1 compared with cRXFP3 (in words)” value is “cRXFP1 showed a higher binding potency with cRLN3 than cRXFP3”. Moreover, in the experiment with cRXFP1 (fold more potent on cRXFP1 than on cRXFP3, cRLN3cm, HEK293 cells), the “potency in activating cRXFP1 relative to cRXFP3” value is listed as “at least 10 fold”.

corticotropin-releasing hormone [CRH]: in the experiment with CART, the “regulation of CART, GnRH compared with CRH” value is recorded as “equal potency”. The “effect of CRH on cRLN3 mRNA expression, time course” value in experiment [2] (CRH 10 nM, 4 h and 24 h, qPCR, fold vs control) was “significantly increase the expression of cRLN3 mRNA in a time-dependent manner”. Moreover, in experiment [2] (CRH 0.1, 1, 10 nM, 24 h, qPCR, N = 4), the “effect of CRH on cRLN3 mRNA expression, dose response” value is “could increase the expression level of cRLN3 mRNA in a dose-dependent manner; also recorded: potently stimulates the expression of cRLN3 in a dose- and time-dependent manner”. In [2] (CRH 0.1–10 nM, 24 h vs GnRH 1–100 nM, 4 h), the “stimulation of cRLN3 mRNA expression, CRH compared with GnRH” value is listed as “the stimulation effect of CRH was higher than that of GnRH”.

Turning to insulin-like peptide 3 [INSL3], the RXFP2 downstream signaling result in [4] is “cAMP level increase and thymidine incorporation”.

In experiment [5], “recombinant human relaxin 3 (rhRLN3) (ligand)” gave an EC50 of inhibition of forskolin-stimulated luciferase activity, cAMP/PKA pathway (pGL3-CRE-luciferase reporter) in HEK293 cells expressing cRXFP3; rhRLN3 10^-12 to 10^-7 M, 6 h of 41.5 nM. In [6], the EC50 of activation, Ca2+ pathway (pGL3-NFAT-RE-luciferase reporter) in HEK293 cells expressing cRXFP1; rhRLN3 10^-12 to 10^-7 M, 6 h stood at 21.1 nM and the EC50 of activation, cAMP/PKA pathway (pGL3-CRE-luciferase reporter) in HEK293 cells expressing cRXFP1; rhRLN3 10^-12 to 10^-7 M, 6 h was 2.68 nM.

In the case of relaxin 3 [RLN3], the “production of E2 during follicular development” value in experiment [7] is recorded as “promotes the production of E2 during follicular development”. Further, the “potency on RXFP3 compared with RXFP1 in mammals” value with RXFP3 [8] was “a higher potency for RXFP3 activation than for RXFP1”. For the same compound, in the experiment on RXFP3 [9], the “RXFP3, cAMP level on ligand binding” value is listed as “cAMP level decrease upon ligand binding”. Besides, the “release of GnRH and CRH from hypothalamic explants” value in experiment [10] is “can stimulate rat hypothalamic explants to release GnRH and CRH”. Besides, the “plasma LH, ACTH and corticosterone levels” value in experiment [11] was “can also increase plasma LH, ACTH, and corticosterone levels”. Also, in the experiment on RXFP1 (HEK293T cells), the “RXFP1 activation, cAMP production” value is on record as “able to activate RXFP1 inducing a dose-dependent increase in cAMP production”. Besides, the “RXFP1 activation in mammals” value with RXFP1 (mammals, Halls et al., 2006) is “RXFP1 can be activated by RLN3”.

These data come from paper PMC9676923, “Characterization of relaxin 3 and its receptors in chicken: Evidence for relaxin 3 acting as a novel pituitary hormone” (Frontiers in Physiology, 2022).
